Assay results: patent publication US11076595B2, “1-(n,n-disubstituted carbamoyl) 4-(substituted sulfonyl)triazolin-5-one derivative, 4-(n,n-disubstituted carbamoyl) 1-(substituted sulfonyl)triazolin-5-one derivative, and herbicide containing said derivative as active ingredient” (HOKKO CHEMICAL INDUSTRY CO., LTD., priority 2017, dated 2021)

Experiments:
Assay type in all cases: in vivo
Echinochloa crus-galli [1] = assay: Test Example 11: herbicidal effect test by soil treatment in paddy field; details: 120 g/10a active ingredient, 14 days after treatment
Outline: (§1)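 Dry weight at day 14 relative to untreated controls gives the suppression rate; duplicate pots. Treatment: 120 g a.i./10 are into paddy water at sowing.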

Lindernia pyxidaria [2] = assay: as above; details: 120 g/10a active ingredient, 14 days after treatment
Outline: as §1

Monochoria vaginalis [3] = assay: as above; details: 120 g/10a active ingredient, 14 days after treatment
Outline: as §1

Scirpus juncoides [4] = assay: as above; details: 120 g/10a active ingredient, 14 days after treatment
Outline: as §1

Amaranthus viridis [5] = assay: Test Example 13: herbicidal effect test by soil treatment in upland field; details: 120 g/10a, 14 days after treatment
Protocol: (§2) A pot having a size of 36 cm^2 was filled with field soil (alluvial soil) and after mixing the soil of the surface layer of 1 cm with 20 grains of each weed seed of crabgrass, Echinochloa crus-galli, Chenopodium album and Amaranthus viridis, the surface layer was pressed lightly. One day after the sowing, an emulsifiable concentrate prepared according to Formulation Example 15 by using the compound shown in Table 11 below was diluted with water, and the water-diluted formulation was sprayed on the soil surface at a ratio of 100 liter per 10 are. The application rate of the active ingredient, by conversion, corresponded to 120 g per 10 are. Fourteen Days after the formulation treatment, the herbicidal effect was evaluated by the same criteria as in Test Example 11.

Chenopodium album [6] = assay: as above; details: 120 g/10a, 14 days after treatment
Protocol: as §2

Echinochloa crus-galli [7] = assay: as above; details: 120 g/10a, 14 days after treatment
Protocol: as §2

crabgrass [8] = assay: as above; details: 120 g/10a, 14 days after treatment
Protocol: as §2

Echinochloa crus-galli [9] = assay: Test Example 12: herbicidal effect test by treatment during growing period in paddy field; details: 120 g/10a; treatment seven days after sowing in flooded paddy pot; assessed 14 days after treatment
Outline: (§3)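 Seeds (30 per species) are sown shallowly into fertilized, puddled paddy soil kept under ~3 cm of water in a greenhouse. One week later, compound formulated as an emulsifiable concentrate is applied dropwise to the water at 120 g a.i./10 are. After 14 days, dry weights give percent suppression against untreated controls.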

Lindernia pyxidaria [10] = assay: as above; details: 120 g/10a; treatment seven days after sowing in flooded paddy pot; assessed 14 days after treatment
Outline: as §3

Monochoria vaginalis [11] = assay: as above; details: 120 g/10a; treatment seven days after sowing in flooded paddy pot; assessed 14 days after treatment
Outline: as §3

Scirpus juncoides [12] = assay: as above; details: 120 g/10a; treatment seven days after sowing in flooded paddy pot; assessed 14 days after treatment
Outline: as §3

Chenopodium album [13] = assay: Test Example 14: herbicidal effect test by foliage treatment in upland field; details: 7 days after sowing, 120 g/10a, 14 days after treatment
Outline: (§4)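 Post-sowing spray at day 7, 120 g a.i./10 are in 100 L water/10 are; alluvial soil pots, duplicate plots; endpoint day 14, % suppression from dry weight relative to untreated.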

crabgrass [14] = assay: as above; details: 7 days after sowing, 120 g/10a, 14 days after treatment
Outline: as §4

Amaranthus viridis [15] = assay: as above; details: 7 days after sowing, 120 g/10a, 14 days after treatment
Outline: as §4

Echinochloa crus-galli [16] = assay: as above; details: 7 days after sowing, 120 g/10a, 14 days after treatment
Outline: as §4

Row | SMILES | Weed suppression rate (%) Echinochloa crus-galli (Echinochloa crus-galli [1]) | Weed suppression rate (%) Lindemia pyxidaria (Lindernia pyxidaria [2]) | Weed suppression rate (%) Monochoria vaginalis (Monochoria vaginalis [3]) | Weed suppression rate (%) Scirpus juncoides (Scirpus juncoides [4]) | herbicidal effect, Amaranthus viridis (Amaranthus viridis [5]) | herbicidal effect, Chenopodium album (Chenopodium album [6]) | herbicidal effect, Echinochloa crus-galli (Echinochloa crus-galli [7]) | herbicidal effect, Crabgrass (crabgrass [8]) | Weed suppression rate (%) Echinochloa crus-galli (Echinochloa crus-galli [9]) | Weed suppression rate (%) Lindemia pyxidaria (Lindernia pyxidaria [10]) | Weed suppression rate (%) Monochoria vaginalis (Monochoria vaginalis [11]) | Weed suppression rate (%) Scirpus juncoides (Scirpus juncoides [12]) | herbicidal effect, Chenopodium album (Chenopodium album [13]) | herbicidal effect, Crabgrass (crabgrass [14]) | herbicidal effect, Amaranthus viridis (Amaranthus viridis [15]) | herbicidal effect, Echinochloa crus-galli (Echinochloa crus-galli [16])
1 | CCN(CC)C(=O)n1cnn(S(=O)(=O)c2ccc(C)cc2)c1=O [Compound 11-625] | 100% | 80% | 40% | 60% | 0% | 0% | 80% | 80% | – | – | – | – | – | – | – | –
2 | CCN(CC)C(=O)n1cnn(S(=O)(=O)c2ccc(C(C)(C)C)cc2)c1=O [Compound 11-670] | 50% | 70% | 50% | 60% | 0% | 0% | 70% | 70% | – | – | – | – | – | – | – | –
3 | CC(C)N(C(=O)n1cnn(S(=O)(=O)c2cccnc2)c1=O)c1ccc(F)cc1F [Compound 11-985] | 90% | 60% | 40% | 40% | 0% | 0% | 80% | 80% | – | – | – | – | – | – | – | –
4 | CC(C)N(Cc1ccc(F)cc1F)C(=O)n1cnn(S(=O)(=O)c2cccs2)c1=O [Compound 11-1046] | 100% | 80% | 60% | 80% | – | – | – | – | 100% | 90% | 90% | 90% | 40% | 100% | 60% | 0%
5 | CC(C)N(C(=O)n1cnn(S(=O)(=O)N(C)C)c1=O)c1ccc(Cl)cc1F [Compound 11-1072] | 90% | 80% | 80% | 90% | – | – | – | – | 100% | 90% | 60% | 90% | 80% | 90% | 90% | 80%
6 | CN(C(=O)n1cnn(S(=O)(=O)C2CCCCC2)c1=O)c1ccc(F)cc1F [Compound 11-1129] | 100% | 100% | 100% | 100% | – | – | – | – | 100% | 70% | 80% | 100% | 60% | 90% | 70% | 70%
7 | CCS(=O)(=O)n1ncn(C(=O)N(c2ccc(F)c(F)c2F)C(C)C)c1=O [Compound 11-1152] | 100% | 100% | 100% | 100% | – | – | – | – | 100% | 100% | 100% | 100% | 80% | 100% | 90% | 100%
